# From patent US20260231941A1, “HERBICIDAL COMPOSITIONS” (SYNGENTA CROP PROTECTION AG, priority 2023, published 2026)
# Assays:
# Experiment in all cases: Post-emergence efficacy, glasshouse, percentage damage to plant
# Assay type in all cases: in vivo
# [1] = test system: Abutilon theophrasti (ABUTH); settings: 14 days, Table B7
# From the text: (§1) Seeds of a variety of test species are sown in standard soil in pots (Digitaria sanguinalis (DIGSA), Echinochloa crus-galli (ECHCG), Setaria faberi (SETFA), Stellaria media (STEME), Amaranthus retroflexus (AMARE), Chenopodium album (CHEAL), Abutilon theophrasti (ABUTH), Ipomoea hederacea (IPOHE), Phalaris minor (PHAMI), Eleusine indica (ELEIN), Sorghum bicolor (SORVU), Euphorbia heterophylla (EPHHL), Fallopia convolvulus (POLCO)), and cultivated under controlled conditions in a glasshouse (at 24/16° C., day/night; 14 hours light; 65% humidity), the plants are sprayed with an aqueous spray solution derived from the dissolution of Component (A) in acetone and IF50 (11.12% Emulsogen EL360 TM+44.44% N-methylpyrrolidone+44.44% Dowanol DPM glycol ether) and Component (B) which was then diluted to the required concentration using 0.2% Genapol XO80 (CAS No. 9043-30-5) in water as the diluent. Test compounds or compositions are applied at the rates stated. The test plants are then grown in a glasshouse under controlled conditions in a glasshouse (at […], day/night; 14 hours light; 65% humidity) and watered twice daily. After 14 days, the test is evaluated for the percentage damage caused to the plant (100=total damage to plant; 0=no damage to plant), and the result are shown below in table B1 to B18.
# [2] = test system: Amaranthus retroflexus (AMARE); settings: 14 days
# From the text: as §1
# [3] = test system: Chenopodium album (CHEAL); settings: 14 days, Table B6
# From the text: as §1
# [4] = test system: Digitaria sanguinalis (DIGSA); settings: 14 days, Table B1
# From the text: as §1
# [5] = test system: Echinochloa crus-galli (ECHCG); settings: growth stage 4 true leaves, 14 days
# From the text: as §1
# Eleusine indica (ELEIN) = settings: 14 days, Table B17
# From the text: as §1
# [6] = test system: Euphorbia heterophylla (EPHHL); settings: 14 days, Table B11
# From the text: as §1
# [7] = test system: Fallopia convolvulus (POLCO); settings: 14 days
# From the text: as §1
# [8] = test system: Ipomoea hederacea (IPOHE); settings: 14 days
# From the text: as §1
# Phalaris minor (PHAMI) = settings: 14 days, Table B9
# From the text: as §1
# Setaria faberi (SETFA) = settings: 14 days, Table B3
# From the text: as §1
# Sorghum bicolor (SORVU) = settings: 14 days, Table B10
# From the text: as §1
# Stellaria media (STEME) = settings: 14 days
# From the text: as §1
# [9] = Compound (Ia) 0.46875 g/Ha alone
# [10] = Compound (Ia) 0.9375 g/Ha alone
compound,measurement,setting,value
CCOC(=O)C1(C)CC(c2cc(-n3c(=O)cc(C(F)(F)F)n(C)c3=O)c(F)cc2Cl)=NO1 (stereo not drawn) [Compound (Ia)],Observed Activity,[1]; [9],25.0%
same,Observed Activity,[1]; [10],67.5%
same,Observed Activity,[1]; Compound (Ia) 1.875 g/Ha alone,88.8%
same,Observed Activity,"[2]; Compound (Ia) 0.9375 g/Ha alone, Table B5",51.3%
same,Observed Activity,"[2]; Compound (Ia) 0.9375 g/Ha alone, Table B15",51.3%
same,Observed Activity,"[2]; Compound (Ia) 1.875 g/Ha alone, Table B5",73.8%
same,Observed Activity,[3]; Compound (Ia) 1.875 g/Ha alone,77.5%
same,Observed Activity,[4]; [10],23.8%
same,Observed Activity,"[5]; Compound (Ia) 3.75 g/Ha alone, Table B2",52.5%
same,Observed Activity,"[5]; Compound (Ia) 3.75 g/Ha alone, Table B13",31.3%
same,Observed Activity,"[5]; Compound (Ia) 7.5 g/Ha alone, Table B2",68.8%
same,Observed Activity,"[5]; Compound (Ia) 7.5 g/Ha alone, Table B13",47.5%
same,Observed Activity,Eleusine indica (ELEIN); [9],37.5%
same,Observed Activity,Eleusine indica (ELEIN); Compound (Ia) 7.5 g/Ha alone,89.8%
same,Observed Activity,[6]; [10],33.3%
same,Observed Activity,[6]; Compound (Ia) 1.875 g/Ha alone,45.3%
same,Observed Activity,"[7]; Compound (Ia) 0.9375 g/Ha alone, Table B18",82.0%
same,Observed Activity,"[7]; Compound (Ia) 1.875 g/Ha alone, Table B12",79.8%
same,Observed Activity,"[7]; Compound (Ia) 1.875 g/Ha alone, Table B18",79.8%
same,Observed Activity,"[8]; Compound (Ia) 0.46875 g/Ha alone, Table B8",53.8%
same,Observed Activity,"[8]; Compound (Ia) 0.46875 g/Ha alone, Table B16",53.8%
same,Observed Activity,"[8]; Compound (Ia) 1.875 g/Ha alone, Table B8",83.8%
same,Observed Activity,"[8]; Compound (Ia) 1.875 g/Ha alone, Table B16",83.8%
same,Observed Activity,Phalaris minor (PHAMI); [9],7.5%
same,Observed Activity,Phalaris minor (PHAMI); [10],11.3%
same,Observed Activity,Phalaris minor (PHAMI); Compound (Ia) 1.875 g/Ha alone,25.8%
same,Observed Activity,Phalaris minor (PHAMI); Compound (Ia) 3.75 g/Ha alone,57.0%
same,Observed Activity,Phalaris minor (PHAMI); Compound (Ia) 7.5 g/Ha alone,72.8%
same,Observed Activity,Setaria faberi (SETFA); Compound (Ia) 3.75 g/Ha alone,73.8%
same,Observed Activity,Sorghum bicolor (SORVU); Compound (Ia) 7.5 g/Ha alone,72.3%
same,Observed Activity,"Stellaria media (STEME); Compound (Ia) 0.9375 g/Ha alone, Table B4",27.5%
same,Observed Activity,"Stellaria media (STEME); Compound (Ia) 1.875 g/Ha alone, Table B4",43.8%
same,Observed Activity,"Stellaria media (STEME); Compound (Ia) 7.5 g/Ha alone, Table B14",67.5%
"CP(=O)(O)CCC(N)C(=O)O (stereo not drawn) [Glufosinate, glufosinate]",Observed Activity,[1]; Glufosinate 7.5 g/Ha alone,7.5%
same,Observed Activity,[1]; Glufosinate 15 g/Ha alone,10.0%
same,Observed Activity,"[2]; Glufosinate 7.5 g/Ha alone, Table B5",0.0%
same,Observed Activity,"[2]; Glufosinate 15 g/Ha alone, Table B5",0.0%
same,Observed Activity,"[2]; Glufosinate 30 g/Ha alone, Table B5",2.5%
same,Observed Activity,[3]; Glufosinate 15 g/Ha alone,0.0%
same,Observed Activity,[4]; Glufosinate 7.5 g/Ha alone,5.0%
same,Observed Activity,"[5]; Glufosinate 30 g/Ha alone, Table B2",47.5%
same,Observed Activity,"[5]; Glufosinate 60 g/Ha alone, Table B2",67.5%
same,Observed Activity,"[5]; Glufosinate 120 g/Ha alone, Table B2",91.5%
same,Observed Activity,[6]; Glufosinate 3.75 g/Ha alone,12.5%
same,Observed Activity,[6]; Glufosinate 7.5 g/Ha alone,12.5%
same,Observed Activity,"[7]; Glufosinate 7.5 g/Ha alone, Table B12",7.5%
same,Observed Activity,"[8]; Glufosinate 7.5 g/Ha alone, Table B8",2.5%
same,Observed Activity,"[8]; Glufosinate 30 g/Ha alone, Table B8",7.5%
same,Observed Activity,Phalaris minor (PHAMI); Glufosinate 1.875 g/Ha alone,2.5%
same,Observed Activity,Phalaris minor (PHAMI); Glufosinate 3.75 g/Ha alone,5.0%
same,Observed Activity,Phalaris minor (PHAMI); Glufosinate 7.5 g/Ha alone,12.5%
same,Observed Activity,Phalaris minor (PHAMI); Glufosinate 15 g/Ha alone,7.5%
same,Observed Activity,Phalaris minor (PHAMI); Glufosinate 30 g/Ha alone,12.5%
same,Observed Activity,Setaria faberi (SETFA); Glufosinate 30 g/Ha alone,15.0%
same,Observed Activity,Sorghum bicolor (SORVU); Glufosinate 30 g/Ha alone,24.0%
same,Observed Activity,"Stellaria media (STEME); Glufosinate 7.5 g/Ha alone, Table B4",0.0%
same,Observed Activity,"Stellaria media (STEME); Glufosinate 30 g/Ha alone, Table B4",2.5%
"CP(=O)(O)CC[C@H](N)C(=O)O [L-Glufosinate, L-glufosinate]",Observed Activity,"[2]; L-Glufosinate 7.5 g/Ha alone, Table B15",5.0%
same,Observed Activity,"[2]; L-Glufosinate 15 g/Ha alone, Table B15",7.5%
same,Observed Activity,"[5]; L-Glufosinate 30 g/Ha alone, Table B13",5.0%
same,Observed Activity,"[5]; L-Glufosinate 60 g/Ha alone, Table B13",22.5%
same,Observed Activity,"[5]; L-Glufosinate 120 g/Ha alone, Table B13",32.5%
same,Observed Activity,Eleusine indica (ELEIN); L-Glufosinate 1.875 g/Ha alone,0.0%
same,Observed Activity,Eleusine indica (ELEIN); L-Glufosinate 30 g/Ha alone,20.0%
same,Observed Activity,"[7]; L-Glufosinate 3.75 g/Ha alone, Table B18",10.0%
same,Observed Activity,"[7]; L-Glufosinate 7.5 g/Ha alone, Table B18",25.0%
same,Observed Activity,"[8]; L-Glufosinate 7.5 g/Ha alone, Table B16",5.0%
same,Observed Activity,"[8]; L-Glufosinate 15 g/Ha alone, Table B16",15.0%
same,Observed Activity,"Stellaria media (STEME); L-Glufosinate 120 g/Ha alone, Table B14",32.5%
